# In ChEMBL document CHEMBL6120978, “Anticancer activity of salinomycin quaternary phosphonium salts” (Eur J Med Chem, 2025):
# The source made the active and inactive calls. The rule behind the calls is not given here.
# Columns and labels:
# Mitochondrial membrane [1] = test: Induction of mitochondrial membrane potential loss in human A549 cells assessed as green fluorescence at IC50 incubated for 48 hrs MitoTracker Green FM staining based flow cytometry analysis (reference value: 8.93 %); type: cell membranes
# Mitochondrial membrane [2] = test: Induction of mitochondrial membrane potential loss in human MDA-MB-231 cells assessed as green fluorescence at IC50 incubated for 48 hrs MitoTracker Green FM staining based flow cytometry analysis (reference value: 8.86 %); type: cell membranes
# Mitochondrial membrane [3] = test: Induction of mitochondrial membrane potential loss in human MDA-MB-231 cells assessed as red fluorescence at IC50 incubated for 48 hrs MitoTrackerRed CMXRos staining based flow cytometry analysis (reference value: 91.1 %); type: cell membranes
# Mitochondrial membrane [4] = test: Induction of mitochondrial membrane potential loss in human A549 cells assessed as red fluorescence at IC50 incubated for 48 hrs MitoTrackerRed CMXRos staining based flow cytometry analysis (reference value: 91.1 %); type: cell membranes
# SW480 = test: Cytotoxicity against human SW480 cells incubated for 72 hrs by MTT assay; type: functional, cell-based; conditions: SW480, 72 h
# SW-620 = test: Cytotoxicity against human SW620 cells incubated for 72 hrs by MTT assay; type: functional, cell-based; conditions: SW-620, 72 h
# PC-3 = test: Cytotoxicity against human PC-3 cells incubated for 72 hrs by MTT assay; type: functional, cell-based; conditions: PC-3, 72 h
# MDA-MB-231 [5] = test: Cytotoxicity against human MDA-MB-231 cells incubated for 72 hrs by MTT assay; type: functional, cell-based; conditions: MDA-MB-231, 72 h
# A549 [6] = test: Cytotoxicity against human A549 cells incubated for 72 hrs by MTT assay; type: functional, cell-based; conditions: A549, 72 h
# [7] = Cytotoxicity against human HaCaT cells incubated for 72 hrs by MTT assay; type: toxicity, cell-based
# [8] = Cytotoxicity against chinese hamster V79 cells incubated for 72 hrs by MTT assay; type: toxicity, cell-based, Cricetulus griseus
# [9] = Selectivity index, ratio of IC50 for cytotoxicity against human HaCaT cells to IC50 for cytotoxicity against human SW480 cells; type: toxicity, cell-based; conditions: HaCaT cells versus SW480 cells, read-out: Ratio IC50
# [10] = Selectivity index, ratio of IC50 for cytotoxicity against human HaCaT cells to IC50 for cytotoxicity against human SW620 cells; type: toxicity, cell-based; conditions: HaCaT cells versus SW620 cells, read-out: Ratio IC50
# [11] = Selectivity index, ratio of IC50 for cytotoxicity against human HaCaT cells to IC50 for cytotoxicity against human PC-3 cells; type: toxicity, cell-based; conditions: HaCaT cells versus PC-3 cells, read-out: Ratio IC50
# [12] = Selectivity index, ratio of IC50 for cytotoxicity against human HaCaT cells to IC50 for cytotoxicity against human MDA-MB-231 cells; type: toxicity, cell-based; conditions: HaCaT cells versus MDA-MB-231 cells, read-out: Ratio IC50
# [13] = Selectivity index, ratio of IC50 for cytotoxicity against human HaCaT cells to IC50 for cytotoxicity against human A549 cells; type: toxicity, cell-based; conditions: HaCaT cells versus A549 cells, read-out: Ratio IC50
# [14] = Selectivity index, ratio of IC50 for cytotoxicity against chinese hamster V79 cells to IC50 for cytotoxicity against human SW480 cells; type: toxicity, cell-based; conditions: V79 cells versus SW480 cells, read-out: Ratio IC50
# [15] = Selectivity index, ratio of IC50 for cytotoxicity against chinese hamster V79 cells to IC50 for cytotoxicity against human SW620 cells; type: toxicity, cell-based; conditions: V79 cells versus SW620 cells, read-out: Ratio IC50
# [16] = Selectivity index, ratio of IC50 for cytotoxicity against chinese hamster V79 cells to IC50 for cytotoxicity against human PC-3 cells; type: toxicity, cell-based; conditions: V79 cells versus PC-3 cells, read-out: Ratio IC50
# [17] = Selectivity index, ratio of IC50 for cytotoxicity against chinese hamster V79 cells to IC50 for cytotoxicity against human MDA-MB-231 cells; type: toxicity, cell-based; conditions: V79 cells versus MDA-MB-231 cells, read-out: Ratio IC50
# [18] = Selectivity index, ratio of IC50 for cytotoxicity against chinese hamster V79 cells to IC50 for cytotoxicity against human A549 cells; type: toxicity, cell-based; conditions: V79 cells versus A549 cells, read-out: Ratio IC50
# A549 [19] = test: Effect on mitochondrial mass in human A549 cells assessed as increase in mean fluorescence intensity at IC50 incubated for 48 hrs by MitoTracker Green FM staining based flow cytometry analysis; type: functional, cell-based
# MDA-MB-231 [20] = test: Effect on mitochondrial mass in human MDA-MB-231 cells assessed as increase in mean fluorescence intensity at IC50 incubated for 48 hrs by MitoTracker Green FM staining based flow cytometry analysis; type: functional, cell-based
# A549 [21] = test: Effect on mitochondrial function in human A549 cells assessed as change in mean fluorescence intensity at IC50 incubated for 48 hrs by MitoTracker Red CMXRos staining based flow cytometry analysis; type: functional, cell-based
# A549 [22] = test: Induction of cell cycle arrest in human A549 cells assessed as change in cell population at IC50 incubated for 24 hrs by propidium iodide staining based flow cytometry analysis; type: functional
# A549 [23] = test: Induction of apoptosis in human A549 cells assessed as viable cells at IC50 incubated for 72 hrs by Annexin V-FITC staining based flow cytometry analysis (reference value: 95.49 %); type: functional
# A549 [24] = test: Induction of apoptosis in human A549 cells assessed as early apoptotic cells at IC50 incubated for 72 hrs by Annexin V-FITC staining based flow cytometry analysis (reference value: 1.68 %); type: functional
# A549 [25] = test: Induction of apoptosis in human A549 cells assessed as late apoptotic cells at IC50 incubated for 72 hrs by Annexin V-FITC staining based flow cytometry analysis (reference value: 1.86 %); type: functional
# A549 [26] = test: Induction of apoptosis in human A549 cells assessed as necrotic cells at IC50 incubated for 72 hrs by Annexin V-FITC staining based flow cytometry analysis (reference value: 0.97 %); type: functional
# MDA-MB-231 [27] = test: Induction of apoptosis in human MDA-MB-231 cells assessed as viable cells at IC50 incubated for 72 hrs by Annexin V-FITC staining based flow cytometry analysis (reference value: 91.53 %); type: functional
# MDA-MB-231 [28] = test: Induction of apoptosis in human MDA-MB-231 cells assessed as early apoptotic cells at IC50 incubated for 72 hrs by Annexin V-FITC staining based flow cytometry analysis (reference value: 4.23 %); type: functional
# MDA-MB-231 [29] = test: Induction of apoptosis in human MDA-MB-231 cells assessed as late apoptotic cells at IC50 incubated for 72 hrs by Annexin V-FITC staining based flow cytometry analysis (reference value: 3.07 %); type: functional
# MDA-MB-231 [30] = test: Induction of apoptosis in human MDA-MB-231 cells assessed as necrotic cells at IC50 incubated for 72 hrs by Annexin V-FITC staining based flow cytometry analysis (reference value: 1.17 %); type: functional
# A549 [31] = test: Induction of ROS generation of human A549 cells at IC50 incubated for 6 hrs by CellROX Green staining based spectrofluorometer analysis; type: functional, cell-based
# MDA-MB-231 [32] = test: Induction of ROS generation of human MDA-MB-231 cells at IC50 incubated for 6 hrs by CellROX Green staining based spectrofluorometer analysis; type: functional, cell-based
# Staphylococcus aureus [33] = test: Antimicrobial activity against Staphylococcus aureus NCTC 4163 incubated for 18 hrs by twofold microdilution method; type: functional
# Staphylococcus aureus [34] = test: Antimicrobial activity against Staphylococcus aureus ATCC 25923 incubated for 18 hrs by twofold microdilution method; type: functional
# Staphylococcus aureus [35] = test: Antimicrobial activity against Staphylococcus aureus ATCC 6538 incubated for 18 hrs by twofold microdilution method; type: functional
# Staphylococcus aureus [36] = test: Antimicrobial activity against Staphylococcus aureus ATCC 29213 incubated for 18 hrs by twofold microdilution method; type: functional
# [37] = tested on: Staphylococcus epidermidis; test: Antimicrobial activity against Staphylococcus epidermidis ATCC 12228 incubated for 18 hrs by twofold microdilution method; type: functional
# [38] = tested on: Staphylococcus epidermidis; test: Antimicrobial activity against Staphylococcus epidermidis ATCC 35984 incubated for 18 hrs by twofold microdilution method; type: functional
# Escherichia coli = test: Antimicrobial activity against Escherichia coli ATCC 25922 incubated for 18 hrs by twofold microdilution method; type: functional
# Pseudomonas aeruginosa = test: Antimicrobial activity against Pseudomonas aeruginosa ATCC 15442 incubated for 18 hrs by twofold microdilution method; type: functional
smiles,measurement,setting,value
N#CC(C#N)=NNc1cccc(Cl)c1,Activity,Mitochondrial membrane [1],79.6%
same,Activity,Mitochondrial membrane [2],87.8%
same,Activity,Mitochondrial membrane [3],12.3%
same,Activity,Mitochondrial membrane [4],20.2%
CC[C@@H](C(=O)[C@@H](C)[C@@H](O)[C@H](C)[C@@H]1O[C@@H]([C@@H](CC)C(=O)OCc2ccccc2)CC[C@@H]1C)[C@H]1O[C@]2(C=C[C@@H](O)[C@]3(CC[C@@](C)([C@H]4CC[C@](O)(CC)[C@H](C)O4)O3)O2)[C@H](C)C[C@@H]1C,IC50,SW480,3.48 µM
same,IC50,SW-620,7.77 µM
same,IC50,PC-3,8.79 µM
same,IC50,MDA-MB-231 [5],16.5 µM
same,IC50,A549 [6],7.52 µM
same,IC50 at 72 h,[7],8 µM
same,IC50 at 72 h,[8],5.83 µM
same,selectivity ratio,[9],2.3
same,selectivity ratio,[10],1
same,selectivity ratio,[11],0.9
same,selectivity ratio,[12],0.5
same,selectivity ratio,[13],1.1
same,selectivity ratio,[14],1.7
same,selectivity ratio,[15],0.8
same,selectivity ratio,[16],0.7
same,selectivity ratio,[17],0.3
same,selectivity ratio,[18],0.8
same,Activity,A549 [19],Active; Slight Increase In Mfi Is Observed
same,Activity,MDA-MB-231 [20],Active; Slight Increase In Mfi Is Observed
same,Activity,A549 [21],inactive
same,Activity,Mitochondrial membrane [1],25.5%
same,Activity,A549 [22],inactive
same,Activity,A549 [23],84.65%
same,Activity,A549 [24],10.57%
same,Activity,A549 [25],2.76%
same,Activity,A549 [26],2.02%
same,Activity,MDA-MB-231 [27],83.92%
same,Activity,MDA-MB-231 [28],6.5%
same,Activity,MDA-MB-231 [29],7.41%
same,Activity,MDA-MB-231 [30],2.17%
same,Activity,Mitochondrial membrane [2],19.6%
same,Activity,Mitochondrial membrane [3],79.7%
same,Activity,Mitochondrial membrane [4],74.5%
same,Activity,A549 [31],Active; Slight Insignificant Increase In Ros Level Was Observed
same,Activity,MDA-MB-231 [32],Active; Slight Insignificant Increase In Ros Level Was Observed
same,MIC,Staphylococcus aureus [33],64 µg/mL
same,MIC,Staphylococcus aureus [34],64 µg/mL
same,MIC,Staphylococcus aureus [35],32 µg/mL
same,MIC,Staphylococcus aureus [36],64 µg/mL
same,MIC,[37],64 µg/mL
same,MIC,[38],> 256 µg/mL
same,MIC,Escherichia coli,> 256 µg/mL
same,MIC,Pseudomonas aeruginosa,> 256 µg/mL
